Test results published in PMC7884786 (Translational Psychiatry, 2021).
Entries after “also recorded” stand apart in the source; their conditions may differ. Like-named read-outs stand apart in the source and are kept apart here. Each block holds one compound with its values, some of them ahead of it.

Columns and labels:
[1] = system: α-cell glucagon secretion from mouse islets; experiment: Islet secretion assay: glucagon secretion from mouse islets; type: cell-based; details: for EC50: read-out: EC50, increase in secreted glucagon
Method: (§1) For mouse pancreatic islet preparations, islets were obtained from 8 to 10-week-old wild-type BALB/c mice. Islets were freshly isolated via collagenase digestion of pancreata as described previously. Human pancreatic islets were isolated via collagenase digestion and purified from four non-diabetic human donors (Supplementary Table S1) as described previously. Following isolation and purification, human or mouse islets were plated at a density of 15 islets per well into 24-well tissue culture-treated plates. […] The islets were used immediately after overnight recovery for hormone secretion assays.
(§2) Measurements of hormone secretion were performed using static incubation of pancreatic islets. […] The increased glucose (25 mM) was used to inhibit α-cell glucagon secretion to diminish glucagon levels to basal levels to improve the dynamic range of the assay and thus effectively unmask the role of ligand-mediated glucagon secretion as described earlier. Islets were then transferred to a 24-well plate containing KRB buffer also supplemented with 25 mM glucose. Drug treatments were added in KRB (25 mM glucose) (1 hr, 37 °C, 5% CO2). After treatment, KRB was supplemented with a protease inhibitor cocktail (1 tablet/10 mL KRB; Roche Diagnostics, Mannheim, Germany) to prevent glucagon degradation. Supernatants were collected and placed on ice to further prevent glucagon degradation and precipitation. Undiluted supernatants and 1:2 dilutions were used for the glucagon detection assay, while 1:10 dilutions were used for insulin measurement; all dilutions were in KRB.

[2] = system: α-cell glucagon secretion in human islets; experiment: Islet secretion assay: glucagon secretion from human islets; type: cell-based; details: for effect on glucagon secretion: increasing concentrations, relative to vehicle control; for increase in glucagon secretion compared to vehicle / effect on α-cell glucagon secretion: 1 µM; for effect on α-cell glucagon secretion: relative to vehicle
Method: as §1, §2

[3] = system: glucose-stimulated insulin secretion (GSIS) from β-cells in mouse islets; experiment: Islet secretion assay: insulin secretion from mouse islets; type: cell-based
Method: as §1, with “Islets” for “For mouse pancreatic islet preparations, islets were obtained from 8 to 10-week-old wild-type BALB/c mice. Islets”
(§3) Measurements of hormone secretion were performed using static incubation of pancreatic islets. […] Islets were then transferred to a 24-well plate containing KRB buffer also supplemented with 25 mM glucose. Drug treatments were added in KRB (25 mM glucose) (1 hr, 37 °C, 5% CO2). After treatment, KRB was supplemented with a protease inhibitor cocktail (1 tablet/10 mL KRB; Roche Diagnostics, Mannheim, Germany) to prevent glucagon degradation. Supernatants were collected and placed on ice to further prevent glucagon degradation and precipitation. Undiluted supernatants and 1:2 dilutions were used for the glucagon detection assay, while 1:10 dilutions were used for insulin measurement; all dilutions were in KRB.

[4] = system: glucose-stimulated insulin secretion (GSIS) from β-cells in human islets; experiment: Islet secretion assay: insulin secretion from human islets; type: cell-based; details: for IC50: read-out: IC50, reduction of insulin secretion (GSIS); for increase in GSIS compared to vehicle / effect on glucose-stimulated insulin secretion: 1 µM; for effect on glucose-stimulated insulin secretion: relative to vehicle
Method: as §1, with “Islets” for “For mouse pancreatic islet preparations, islets were obtained from 8 to 10-week-old wild-type BALB/c mice. Islets”
as §3

parental INS-1E cells = experiment: Glucose-stimulated insulin secretion (GSIS) in parental INS-1E cells; type: cell-based; details: Rattus norvegicus, 1.5 h, read-out: IC50, inhibition of GSIS
[5] = molecular target: T1, endogenous α2A-adrenergic receptors in INS-1E cells (Rattus norvegicus, UniProt P22909); experiment: [3H]RX821002 radioligand binding, INS-1E cell membranes; details: for Bmax, saturation binding / Kd: parental INS-1E cell membranes; for Kd: read-out: KD, saturation binding
T1 construct: adherent INS-1E cells expressing the endogenous α2A-adrenergic receptors; endogenous in cells; host or cells: INS-1E (rat insulinoma) cell membranes
T1 sequence (P22909 1-465): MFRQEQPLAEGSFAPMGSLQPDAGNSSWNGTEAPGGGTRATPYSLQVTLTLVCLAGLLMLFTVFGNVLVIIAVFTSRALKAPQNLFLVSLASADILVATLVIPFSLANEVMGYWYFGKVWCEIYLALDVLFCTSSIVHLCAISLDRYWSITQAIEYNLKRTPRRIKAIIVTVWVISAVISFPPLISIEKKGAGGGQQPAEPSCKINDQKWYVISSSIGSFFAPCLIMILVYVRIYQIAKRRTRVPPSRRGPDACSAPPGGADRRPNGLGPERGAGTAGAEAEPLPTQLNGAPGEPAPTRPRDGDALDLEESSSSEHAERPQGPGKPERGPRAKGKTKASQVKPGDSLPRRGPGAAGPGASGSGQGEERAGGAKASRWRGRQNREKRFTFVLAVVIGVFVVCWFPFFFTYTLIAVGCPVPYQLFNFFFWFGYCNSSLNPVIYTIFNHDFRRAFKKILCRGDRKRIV
Method: (§4) Radioligand binding and competition assays were conducted as previously described. Briefly, adherent INS-1E cells expressing the endogenous α2A-adrenergic receptors or transfected HEK-293 cells overexpressing human α2A-adrenergic receptor were dissociated from plates, and intact cells collected by centrifugation (600–900 g, 5–10 min, 4 °C). Cells were resuspended and lysed using 5 mM Tris-HCl and 5 mM MgCl2 (pH 7.4, 4 °C). Cell lysates were pelleted by centrifugation at 30,000 × g for 30 min and resuspended in Earle’s Balanced Salt Solution with Ca^2+ (pH 7.4). For saturation binding assays, cell lysates (100 µL, 2–5 μg of protein for HEK-293 cells and 10–20 μg of protein for INS-1E cells, quantified by the Bradford Assay) were incubated with the indicated concentrations of [^3H]RX821002 (90 min, room temperature). […] The bound ligand was separated from free ligand by filtration through a Perkin Elmer Unifilter-96 GF/C 96-well microplate using the Perkin Elmer Unifilter-96 Harvester (Perkin Elmer, Waltham, MA), followed by three washes with ice-cold assay buffer. After drying, a liquid scintillation cocktail (MicroScint PS; Perkin Elmer) was added to each well, and plates were sealed and analyzed on a Topcount NXT liquid scintillation counter (Perkin Elmer). Ki values were calculated from observed IC50 values using the Cheng–Prusoff equation[47].

α2A-adrenergic receptor = α2A-adrenergic receptor (Rattus norvegicus, UniProt P22909); experiment: NanoBRET Gαi1 recruitment to α2A-adrenergic receptor; type: cell-based
Chain of α2A-adrenergic receptor (P63096 2-354 partner limits assumed, one chain of several): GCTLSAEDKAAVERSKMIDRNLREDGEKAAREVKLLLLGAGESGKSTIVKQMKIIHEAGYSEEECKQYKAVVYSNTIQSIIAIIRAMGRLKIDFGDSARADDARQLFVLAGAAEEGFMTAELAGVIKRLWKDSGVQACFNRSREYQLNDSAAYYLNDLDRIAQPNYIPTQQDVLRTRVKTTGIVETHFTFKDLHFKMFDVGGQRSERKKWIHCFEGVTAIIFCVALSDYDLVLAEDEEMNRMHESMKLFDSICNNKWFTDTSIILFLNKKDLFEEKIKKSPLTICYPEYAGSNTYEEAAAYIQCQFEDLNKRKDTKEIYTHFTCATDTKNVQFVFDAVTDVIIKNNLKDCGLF
Description: For nanoBRET experiments, we used receptor constructs consisting of either human D2R (DRD2) and rat α2A-adrenergic receptor (Adra2a) cDNAs fused to HaloTag at the C-terminus (α2A-AR-HaloTag and D2R-HaloTag). Both receptors were also tagged at the N terminus with an IL6 signal sequence followed by a HiBiT tag. […] All constructs were cloned into a pcDNA3.1(+) vector backbone (ThermoFisher Scientific) and confirmed by sequencing analysis.
For NanoLuc-only controls, empty pcDNA3.1(+) vector was used to maintain a constant amount of total transfected DNA.
Cells were harvested, washed, and resuspended in fresh medium 24 h post-transfection. Approximately 5 × 10^4 cells/well were distributed in pre-coated 96-well plates and allowed to adhere overnight (37 °C, 5% CO2). […] Following labeling, cells were washed once with HBSS, and 5 μM furimazine (substrate for NanoLuc) was added to every well. Drugs were then added to the samples and incubated for […]. Plates were read 5 min following drug addition using a PheraStar FSX equipped with a nanoBRET-compatible optic module (LUM 610 450) (BMG Labtech). […] EC50 values were calculated via a non-linear regression analysis via GraphPad software.

[6] = system: α2A-adrenergic receptor KO INS-1E cells; experiment: cells; details: Rattus norvegicus, read-out: IC50, inhibition of GSIS
Description: (§5) We employed a CRISPR-Cas9-mediated approach to delete endogenous α2A-adrenergic receptor expression in INS-1E cells. Since INS-1E cells are rat-derived, we used the mRNA sequence encoding rat α2A-adrenergic receptor as a template to generate guide RNA (gRNA) to disrupt the promoter region of the Adra2a gene (gRNA sequence: 5′-[sequence]-3′, positions 57–76). We then generated a construct containing the Adra2a gRNA sequence along with cDNA sequences encoding Cas9 and GFP (pENTR-Adra2a-sgRNA-Cas9-GFP). 1–5 μg of the construct was subsequently transfected into low-passage INS-1E cells using Lipofectamine 3000 (ThermoFisher Scientific) according to manufacturer instructions. 24–48 h post-transfection, the transfected cells were identified and collected by fluorescence-activated cell sorting based on GFP fluorescence using a BD FACSAria II sorter (BD Biosciences, San Jose, CA) equipped with a GFP filter (530/30 nm).
(§6) Insulin secretion assays in INS-1E cells were conducted as described earlier[7],[42]. […] Insulin secretion was carried out 48 h after seeding the cells. On an experimental day, cells were first glucose-starved in KRB (0 mM glucose) for 1 h (37 °C, 5% CO2), followed by glucose stimulation with KRB supplemented with 20 mM glucose in the presence or absence of drugs for 90 min (37 °C, 5% CO2). The supernatants were collected and diluted 1:10 in KRB for the insulin detection assay.
(§7) The assay is based on homogeneous time-resolved fluorescence resonance energy transfer (HTRF) technology. Standard curve and assay samples (10 μL/well) were plated into a 384-well white, low-volume, round-bottom plate (Corning, Corning, NY). […] Secreted insulin was similarly detected and measured by an HTRF approach using the insulin high range detection kit (Cisbio Bioassays) as described previously[42]. The two anti-insulin antibodies were mixed in a 1:2 donor (cryptate)/acceptor (XL665) ratio in the insulin assay detection buffer (Cisbio Bioassays) and 15 µL of the insulin antibody mix was added per well. For both glucagon and insulin HTRF assays, the incubation time was 2 h at room temperature. […] The raw data were obtained in ng/mL insulin secreted and pg/mL glucagon secreted. Dose-response curves were fit via non-linear regression of Log[ligand] versus normalized % glucagon or insulin secretion. Investigators were blinded to the identity of samples during the initial analysis.

αTC1–6 cells = experiment: Catecholamine secretion assay with HPLC measurement; type: cell-based, mouse
Method: Cell-based catecholamine secretion assays were conducted as reported earlier[7]. Briefly, αTC1–6 cells were seeded into 24-well plates at an initial seeding density of 5 × 10^5 cells/well in complete DMEM medium. […] Some samples were also supplemented with 10 μM L-DOPA to boost cell catecholamine production in the presence or absence of a monoamine oxidase inhibitor cocktail (10 μM: deprenyl, pargyline, clorgyline). […] Lysates were collected and centrifuged at 17,000 rpm for 5 min at 4 °C to pellet cell debris and then added into HEGA buffer for High-Performance Liquid Chromatography (HPLC) analysis.
Assay samples were filtered (0.20 μm filter; ThermoFisher Scientific) and analyzed via HPLC with electrochemical detection as previously reported[7]. Briefly, samples were separated on a C18 reverse-phase column (Hypersil ODS C18 column, ThermoFisher Scientific) with MD-TM mobile phase (ThermoFisher Scientific).

[7] = molecular target: T2, human α2A-adrenergic receptor (Homo sapiens, UniProt P08913); experiment: [3H]RX821002 radioligand binding, HEK-293 cells overexpressing α2A-adrenergic receptor; details: membranes from HEK-293 cells overexpressing human α2A-adrenergic receptor
T2 construct: expressed in transfected cells; host or cells: HEK-293 (ATCC CRL-1573), transient transfection
T2 sequence (P08913 1-465): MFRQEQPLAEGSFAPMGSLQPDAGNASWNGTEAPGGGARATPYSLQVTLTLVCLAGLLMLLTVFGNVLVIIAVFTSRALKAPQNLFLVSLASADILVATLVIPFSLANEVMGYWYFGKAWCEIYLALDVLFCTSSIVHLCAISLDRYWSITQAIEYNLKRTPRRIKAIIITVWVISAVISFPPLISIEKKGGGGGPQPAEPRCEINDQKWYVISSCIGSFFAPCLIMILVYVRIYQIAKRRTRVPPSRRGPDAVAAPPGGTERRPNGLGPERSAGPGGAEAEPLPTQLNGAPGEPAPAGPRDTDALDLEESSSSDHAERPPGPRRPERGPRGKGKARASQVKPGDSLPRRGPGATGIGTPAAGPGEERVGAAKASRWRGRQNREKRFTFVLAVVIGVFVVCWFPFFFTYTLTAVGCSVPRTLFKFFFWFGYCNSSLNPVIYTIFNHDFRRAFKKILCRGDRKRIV
Method: as §4

[8] = system: membranes from α2A-adrenergic receptor KO INS-1E cells; experiment: [3H]RX821002 saturation binding, α2A-adrenergic receptor KO INS-1E cell membranes; parameters: species or system rat
Method: as §4

[9] = system: α2A-adrenergic receptor KO INS-1E cells; details: α2A-adrenergic receptor KO INS-1E cells compared to parental
Description: as §5, §6, §7

[10] = 10 μM L-DOPA supplementation, compared to untreated cells
[11] = parental INS-1E cells, 20 mM glucose, 90 min

SMILES: NCCc1ccc(O)c(O)c1 [DA, Dopamine]
EC50 ([1]; Mus musculus, 1 h): 14.9 ± 3.8 nM
effect on glucagon secretion [2]: biphasic glucagon secretory response
IC50 ([3]; Mus musculus, read-out: IC50, reduction of insulin secretion (GSIS), mouse islets): 1290 ± 2 nM
IC50 ([3]; read-out: IC50, reduction of insulin secretion (GSIS), mouse islets): 1300 ± 2 nM
IC50 ([4]; Homo sapiens): 26.2 ± 2.9 nM
IC50 (parental INS-1E cells; INS-1E): 1500 ± 2 nM
Ki [5]: 164 ± 1.2 nM
EC50 (α2A-adrenergic receptor): 2100 ± 2 nM
IC50 [6]: 474 ± 2.5 nM

SMILES: N[C@@H](Cc1ccc(O)c(O)c1)C(=O)O [L-DOPA, L-3,4-dihydroxyphenylalanine]
fold increase in NE (αTC1–6 cells; [10]): 3 fold
fold increase in α-cell DA secretion (αTC1–6 cells; [10]): 60 fold
DA levels, fold more compared to NE (αTC1–6 cells; pre-incubation with 10 μM L-DOPA): 27 fold

EC50 ([1]; Mus musculus, 1 h, mouse islets, 25 mM glucose, 1 hr): 142 ± 2.3 nM
EC50 ([1]; mouse islets, 25 mM glucose, 1 hr): 142 ± 2.3 nM
IC50 ([3]; Mus musculus, mouse islets, read-out: IC50, reduction of insulin secretion (GSIS)): 178 ± 2.4 nM
IC50 ([3]; mouse islets, read-out: IC50, reduction of insulin secretion (GSIS)): 179 ± 2.4 nM
IC50 ([4]; Homo sapiens, human islets): 787.2 ± 1.3 nM
IC50 ([4]; human islets): 787 ± 1.3 nM
IC50 [6]: 1400 ± 2 nM
SMILES: NC[C@H](O)c1ccc(O)c(O)c1 [NE, norepinephrine]
effect on glucagon secretion [2]: significantly enhance glucagon secretion; also recorded: significantly increased α-cell glucagon secretion
IC50 (parental INS-1E cells; [11]): 39.8 ± 1.5 nM

SMILES: COC1(C2=NCCN2)COc2ccccc2O1 (centres unmarked) [[^3H]RX821002]
Bmax, saturation binding [5]: 110 ± 3.3 fmol/mg protein
Bmax, saturation binding ([5]; listed as [3H]RX821002): 110±0.02 fmol/mg protein
Kd ([5]; listed as [3H]RX821002): 0.098 ± 0.02 nM
Kd [5]: 0.1 ± 0.02 nM
Bmax, saturation binding [7]: 5691 ± 103 fmol/mg protein
Bmax, saturation binding ([7]; listed as [3H]RX821002): 5691±103 fmol/mg protein
Kd ([7]; read-out: KD, saturation binding): 0.67 ± 0.05 nM
Bmax, saturation binding [8]: 29.1 ± 4.3 fmol/mg protein

SMILES: Clc1cccc(Cl)c1N=C1NCCN1 [clonidine]
IC50 (parental INS-1E cells; [11]): 12.7 ± 1.3 nM
GSIS inhibition in KO cells [9]: attenuated; also recorded: virtually eliminated

SMILES: CN1CCN(C2=Nc3cc(Cl)ccc3Nc3ccccc32)CC1 [clozapine]
increase in glucagon secretion compared to vehicle [2]: 200.2 ± 21.7%
effect on α-cell glucagon secretion [2]: significantly raised α-cell glucagon secretion
increase in GSIS compared to vehicle ([4]; human islets): 19.8 ± 4.0%
effect on glucose-stimulated insulin secretion ([4]; human islets): raised glucose-stimulated insulin secretion

SMILES: O=C(CCCN1CCC(O)(c2ccc(Cl)cc2)CC1)c1ccc(F)cc1 [haloperidol]
increase in glucagon secretion compared to vehicle [2]: 67.1 ± 13.6%
effect on α-cell glucagon secretion [2]: significantly raised α-cell glucagon secretion
increase in GSIS compared to vehicle ([4]; human islets): 24.1 ± 4.6%
effect on glucose-stimulated insulin secretion ([4]; human islets): raised glucose-stimulated insulin secretion

SMILES: Cc1cc2c(s1)Nc1ccccc1N=C2N1CCN(C)CC1 [olanzapine]
increase in glucagon secretion compared to vehicle [2]: 105.7 ± 23.4%
effect on α-cell glucagon secretion [2]: significantly raised α-cell glucagon secretion
increase in GSIS compared to vehicle ([4]; human islets): 43.6 ± 3.1%
effect on glucose-stimulated insulin secretion ([4]; human islets): raised glucose-stimulated insulin secretion

SMILES: CC(C)NC[C@H](O)COc1cccc2ccccc12 [propranolol, S-(−)-propranolol]
effect of propranolol on DA-induced glucagon secretion ([1]; mouse islets, propranolol 100 nM pre-treatment prior to DA): attenuates DA’s enhancement of glucagon secretion; also recorded: eliminated DA-induced increases in α-cell glucagon secretion
